Converted amounts (≈) assume the structure as drawn.

The conditions of this data set: buffer; pH 7.4; 200.0 µM.
Regarding `CC(C#N)Sc1ncnc2sc(-c3ccccc3)cc12` (stereo unspecified), the kinetic solubility (usually the concentration staying in solution when a stock, usually in DMSO, is diluted into the medium) amounted to 0.8 µg/mL (≈ 2.69 µM).
The figure for `CC(C)(C)C(=O)Nc1cccc(-c2ncon2)c1` is more than 36.8 µg/mL; for `C=C(C)c1cccc(C(C)(C)NC(=O)N2CCC(C(N)=O)CC2)c1` it is more than 49.4 µg/mL.
Consider `CC(=O)NC(CC(=O)O)C(=O)O` (stereo unspecified), for which the solubility (kinetic) was more than 26.3 µg/mL.
The figure for `COc1ccc(N=Cc2nc(-c3ccccc3)oc2OC(C)=O)cc1` is 1.6 µg/mL (≈ 4.76 µM); for `Cc1cccc(C)c1NC(=O)CSc1n[nH]c(=O)n1C1CC1` it is more than 47.8 µg/mL.
As for `COc1ccc(CCNc2nc(-c3ccncc3)cs2)cc1OC`, the solubility (kinetic) was found to be 35.9 µg/mL (≈ 105 µM).
The figure for `COC(=O)c1ccc(NC(=O)c2cccc(NC(=O)c3ccco3)c2)cc1` is less than 0.4 µg/mL.
For `NC(=O)c1ccccc1NCC(=O)c1ccc(F)cc1`, the solubility (kinetic) was more than 40.8 µg/mL.
With `O=C(Nc1ccc(Cl)cc1)OC1CN2CCC1CC2` (stereo unspecified) the figure was 40.5 µg/mL (≈ 144 µM).
With `CN1C(=O)/C(=C\c2ccco2)N=C1c1ccc(Cl)cc1Cl` the figure was 33 µg/mL (≈ 103 µM); with `COc1cc2c(cc1OC)CN(C(=O)COc1ccccc1C#N)CC2`, 15 µg/mL (≈ 42.6 µM); with `CCC(C)NC(=O)c1cn(-c2cccc(OC)c2)c(=O)c2ccccc12` (stereo unspecified), 46.9 µg/mL (≈ 134 µM).
With `COc1cccc(NC(=S)N2CCN(S(C)(=O)=O)CC2)c1` the figure was more than 49.4 µg/mL.
For `Cc1cc(OCC(O)CN2CCCC2)cc(C)c1Cl.Cl` (stereo unspecified), the kinetic solubility stood at 42.3 µg/mL.
The figure for `Cc1[nH]c(=O)[nH]c(=O)c1S(=O)(=O)Nc1cccc(C(F)(F)F)c1` is more than 52.4 µg/mL.
With `Cc1ccc(N2C(=O)N(C(C)C)C(C)(C)CC2(C)O)cc1` (stereo unspecified) the figure was more than 43.6 µg/mL; with `Cc1ccc(CNc2cccnc2)cc1`, more than 29.7 µg/mL; with `CCOP(=O)(c1ccc(N(C)C)cc1)C(O)c1ccc(C)cc1` (stereo unspecified), 46 µg/mL (≈ 138 µM).
With `COc1ccccc1N1CCN(C(=O)c2cc(C)on2)CC1` the figure was more than 45.2 µg/mL; with `FC(F)(F)c1ccccc1NC1=NCCCS1`, more than 39 µg/mL; with `COc1cccc(N2CCN(C(=O)/C=C/c3ccco3)CC2)c1`, 44.6 µg/mL (≈ 143 µM).
Take `Cc1ccn2cc(-c3cc4ccccc4oc3=O)nc2c1`: the kinetic solubility came out at 3.1 µg/mL (≈ 11.2 µM).
With `Cc1ccc(Cl)cc1NC(=O)CN1C(=O)NC(C)(C2CC2)C1=O` (stereo unspecified) the figure was more than 50.4 µg/mL; with `CN(c1ccc(OCC(=O)Nc2cc(Cl)ccc2C(=O)O)cc1)S(=O)(=O)c1ccc(F)cc1`, more than 73.9 µg/mL; with `CCN1CCc2c(OCC(=O)N3CCC(C)CC3)cccc2C1=O`, 46.2 µg/mL (≈ 140 µM).
Turning to `O=C(NCc1cccnc1)C1CCN(S(=O)(=O)c2cc([N+](=O)[O-])ccc2Cl)CC1`, the solubility (kinetic) is more than 65.8 µg/mL.
The figure for `O=C(Nc1nnc(-c2ccco2)o1)c1ccc(N2C(=O)CCC2=O)cc1` is more than 52.8 µg/mL; for `Cc1ccc(-c2c[n+](=O)c3c(n2[O-])CCC3)cc1` it is more than 36.3 µg/mL; for `Cc1nc2ccccc2c2c(N)c3ccccc3n12` it is 16.4 µg/mL (≈ 66.3 µM).
The figure for `O=C(O)Cn1cc(C(=O)c2ccccc2F)c2ccccc21` is 44.5 µg/mL (≈ 150 µM); for `O=C(NCCOc1ccc(Cl)cc1)C(=O)NCC1CCCO1` (stereo unspecified) it is 33.6 µg/mL (≈ 103 µM); for `CN(C)C(=O)C1CC(=O)OC12CCCCC2` (stereo unspecified) it is 28.2 µg/mL (≈ 125 µM).
With `CC(=NCCc1ccccc1)c1c(O)n(C)c(=O)n(C)c1=O` the figure was 37.2 µg/mL (≈ 123 µM).
As for `Nc1nc(-c2ccc(Oc3ccccc3)cc2)cs1`, the kinetic solubility came out at 12.8 µg/mL (≈ 47.7 µM).
The figure for `CCC(=O)Nc1ccc2c(c1)ncn2-c1ccccc1C` is more than 41.9 µg/mL; for `CCCc1nc2c(=O)n(C)c(=O)nc-2n(C)n1` it is more than 35.3 µg/mL.
For `O=C(CSc1nccn1-c1cccc(Cl)c1)NO`, the kinetic solubility was more than 42.6 µg/mL.
`CC(C)(C)NC(=O)NC12CC3CC(CC(C3)C1)C2` came in with a kinetic solubility of 2.1 µg/mL (≈ 8.39 µM).
Consider `COc1ccc(C(=O)COC(=O)c2c(C)noc2C)cc1Cl`, for which the kinetic solubility was 2.9 µg/mL (≈ 8.96 µM).
With `Cc1ccc(CN2C(=O)CSC2c2ccccc2F)cc1` (stereo unspecified) the figure was 14 µg/mL (≈ 46.5 µM).

The values are drawn from PubChem BioAssay AID1996.
